On data set [1], the source says:
Solubility testing was undertaken using the estimate of Fe content from C/H/N analysis. […] This procedure assumes the products below to contain substantially only C, H and Fe. Masses of product(s) sufficient to provide the required concentration of iron as condensation products were weighed into screw-cap vials and made up to 10.00 g with toluene. The samples were capped, shaken or swirled until homogenous then sealed using Parafilm™. The vials were then kept in an ethylene glycol/water filled bath held at −30° C. and periodically inspected for the appearance of solids or separation of liquid phases. After at least one week solids were separated by rapid filtration and soluble products isolated by removal of solvent under vacuum.
Following analysis of the solids, maximum and minimum solubilities were estimated from the mass balance.

Data set [2] is described as follows: Viscosity of 2.5 wt % iron solutions in toluene (Bohlin CVO rheometer). It is filed as physicochemical. The settings on record: toluene solution at 2.5 wt % Fe. How it is done: Viscosities of 2.5 wt % iron solutions were determined using a Bohlin Instruments CVO rheometer using a 4° 40 mm cone and plate at shear rates of either 2 Pa or 0.5 Pa.
Data set [3] can be described thus: Iron content of Isopar L solutions stored at −30° C. (Example 2). It is filed as physicochemical. Conditions: for Iron content of Isopar L solutions at −30° C.: 5 wt % iron solutions in Isopar L stored at −30° C. at least one week, filtered, X-ray spectroscopy; for Iron content of Isopar L solutions at −30° C., purified sample: as E8, sample first purified by dissolving in minimum heptane, recrystallising out ferrocene, filtration, solvent removal. As to the method: The solubilities of the products of the above reactions were determined on a weight percent iron basis. […] Solutions at 5 wt % iron in Isopar L were prepared on this basis, sealed into vials and stored at −30° C. during at least one week.

Data set [4] can be described thus: Solubility in Isopar L at −30° C. during 120 hours, X-ray fluorescence (Example 4). It is filed as physicochemical. Conditions: nominal 5 wt % iron; for Solubility (% m/m Fe): 0.02 μm filtration. How it is done: The solubility of the isolated samples was determined in Isopar L solvent. For the isolated samples of compounds 7 and 8 the C/H/N analysis was used to indicate the iron content. For compounds 9 and 10 the theoretical iron content was assumed. Solutions were then prepared, at ambient temperatures or with slight warming as required, to a nominal iron content 5 wt % The samples were then sealed and immersed in a bath of ethylene glycol/water cooled and thermostatted to −30° C. during 120 hours.
The samples were then individually removed from the bath, taken up into a 10 cm^3 syringe then discharged to a second vial with filtration via a Whatman Anotop 25 0.02 μm in-line filter with Luer hub. Iron contents were then determined by X-ray fluorescence spectroscopy in an Oxford Instruments ED2000 Ag analyser. The analyser was calibrated against standards of ferrocene in toluene at iron concentrations of 0.5 through 3.0 wt % by 0.5 wt % intervals and against ferrocene in Isopar L 0.5 and 1.0 wt % (approximate ambient temperature solubility limit). Where required, dilution of sample materials was employed to bring the concentration within the range of the calibration.

Marks after values point to notes of the source that are not given here.

`CCCCC(C=O)CC` (centres unmarked) [Compound 1, 2-Ethylhexanal]: in data set [1], the “Solubility in Toluene at −30° C., 2.5 wt % Fe” value (shortened to “Solubility … 2.5 wt % Fe”) is reported as “Clear”; the “Solubility in Toluene at −30° C., 5.0 wt % Fe” value (from here on “Solubility … 5.0 wt % Fe”) is “Clear”; the “solubility limit in toluene” value is listed as “less than 3.2 wt %”. The “Viscosity at −30° C.” value in data set [2] is reported as 5.1 to 6.4 mPas.

As to 1,1-bis-(ferrocenyl)-hexane, in data set [3], the “Iron content of Isopar L solutions at −30° C.” value was determined as 3.99 wt % and the “Iron content of Isopar L solutions at −30° C., purified sample” value is reported as 4.89* wt %.

For the compound 1,1-diferrocenylpentane [Compound 4], in data set [1], the “Solubility … 2.5 wt % Fe” value was “Clear” and the “Solubility … 5.0 wt % Fe” value is recorded as “Clear”. The “Viscosity at −30° C.” value in data set [2] is recorded as 5.4 mPas.

Consider “1,1-bis(ethylferrocenyl)pentane [Compound 9]”, for which, in data set [4], the Appearance/ease of filtration entry is listed as “Clear, filters well” and the “Solubility (% m/m Fe)” value was 5.0 % m/m Fe.

For “1,1-bis(butylferrocenyl)pentane [Compound 10]”, in data set [4], the Appearance/ease of filtration entry is on record as “Clear, but hard to filter” and the “Solubility (% m/m Fe)” value was 4.8 % m/m Fe.

On to 1,1-bis-(ferrocenyl)-heptane, for which the “Iron content of Isopar L solutions at −30° C.” value in data set [3] came to 4.05 wt %.

As for 3,3-bis-(ferrocenyl)-pentane, in data set [3], the “Iron content of Isopar L solutions at −30° C.” value worked out at 1.71 wt %.

Turning to 1,1-bis-(ferrocenyl)-octane, in data set [3], the “Iron content of Isopar L solutions at −30° C.” value came out at 4.60 wt % and the “Iron content of Isopar L solutions at −30° C., purified sample” value is listed as 4.88* wt %.

3,3-bis-(ferrocenyl)-butyl acetate: the “Iron content of Isopar L solutions at −30° C.” value in data set [3] was 2.30 wt %.

Take `CCCC(=O)CCC` [Compound 3, Heptan-4-one]: in data set [1], the “Solubility … 2.5 wt % Fe” value is given as “Clear” and the “Solubility … 5.0 wt % Fe” value was “Solids”. Besides, the “Viscosity at −30° C.” value in data set [2] is 5.1 mPas.

Consider 3,3-bis-(ferrocenyl)-hexane, for which the “Iron content of Isopar L solutions at −30° C.” value in data set [3] amounted to 1.38 wt %.

`CC(=O)CCC(C)=O` [Compound 2, Acetonyl acetone]: in data set [1], the “Solubility … 2.5 wt % Fe” value is listed as “Powder” and the “Solubility … 5.0 wt % Fe” value is reported as “Powder”.

In the case of 2,2-bis-(ferrocenyl)-heptane, the “Iron content of Isopar L solutions at −30° C.” value in data set [3] turned out to be 3.29 wt %.

With 2,2-bis-(ferrocenyl)-octane, the “Iron content of Isopar L solutions at −30° C.” value in data set [3] was found to be 2.72 wt %.

As for 1,1-bis-(ferrocenyl)-decane, in data set [3], the “Iron content of Isopar L solutions at −30° C.” value amounted to 4.41 wt %.

1,1-bis-(ferrocenyl)-nonane: the “Iron content of Isopar L solutions at −30° C.” value in data set [3] is 4.96 wt %.

Regarding 2,2-bis-(ferrocenyl)-pentane, in data set [3], the “Iron content of Isopar L solutions at −30° C.” value is 2.62 wt %.
